{"source": "patent US20200093801A1", "about": "“NEW METHODS FOR THE TREATMENT OF MULTIPLE SCLEROSIS” (Novartis AG, priority 2017, published 2020)", "key": {"[1]": {"tested_on": "Cuprizone-Induced Demyelination in Mice", "assay": "Cuprizone-induced demyelination in mice, MRI (169 mg/kg)", "assay_type": "in vivo, Mice (C57BL/6J)", "details": "169 mg/kg p.o. qd, 2-week therapeutic treatment after 5 weeks 0.2% cuprizone", "description": "Studies described below were approved by the Swiss Cantonal Veterinary Authority of Basel City, Switzerland, under the license number 2711. Mice (C57BL/6J) were commercially purchased from Charles River Laboratories, Germany or obtained from Novartis Pharma AG breeding colonies (8-9 weeks old, females). All the animals were allowed to adapt for 7 days prior the start of the experiment and housed in IVC racks (max. 4 mice/XJ Type cage). The animals were given access to food and water ad libitum. Animals were treated with cuprizone for 5 weeks. Cuprizone (Bis(cyclohexanone)oxaldihydrazone, Sigma-Aldrich) was mixed into rodent food pellets (0.2% w/w) by Provimi Kliba AG, Switzerland. Therapeutic treatment of animals after cuprizone was performed for 2 weeks on normal food with 169 mg/kg of BLZ945, qd, p.o. 10 ml/kg. BLZ945 was prepared in vehicle consisting of 0.5% methylcellulose in water and 0.1% Tween-80. Before killing 3 h after last BLZ945 dosing animals were perfused transcardially by phosphate-buffered saline (PBS), brains isolated and fixed in 4% paraformaldehyde (PFA) for 48 h at 4° C.\nMeasurements were performed with a Biospec 70/30 spectrometer (Bruker Medical Systems, Ettlingen, Germany) operating at 7 T. The operational software of the scanner was Paravision 5.1 (Bruker). Images were acquired from anesthetized, spontaneously breathing animals using a mouse brain circularly polarized coil (Bruker, Model 1P T20063V3; internal diameter 23 mm) for radiofrequency excitation and detection; neither cardiac nor respiratory triggering was applied. Following a short period of introduction in a box, animals were maintained in anesthesia with 1.5% isoflurane (Abbott, Cham, Switzerland) in oxygen, administered via a nose cone. During MRI signal acquisitions, animals were placed in prone position in a cradle made of Plexiglas, the body temperature was kept at 37±1° C. using a heating pad, and the respiration was monitored.\nA T2-weighted, two-dimensional multislice RARE (Rapid Acquisition with Relaxation Enhancement) sequence (Hennig et al., 1986) was used for determining the anatomical orientation and for evaluating signal intensities. This was followed by a two-dimensional multislice gradient-recalled FLASH (Fast Low-Angle Shot) acquisition (Haase et al., 1986) for assessment of Magnetization Transfer Ration (MTR). As both sequences had the same anatomical parameters, the choice of the regions-of-interest for evaluations was performed on the RARE images and then transferred to the FLASH images. The parameters of the acquisitions were the following: (a) RARE sequence: effective echo time 80 ms, repetition time 3280 ms, RARE factor 16, 12 averages, field of view 20×18 mm^2, matrix size 213×192, pixel size 0.094×0.094 mm^2, slice thickness 0.5 mm, 15 adjacent slices. […]"}, "microglia": {"tested_on": "microglia", "assay": "Microglia depletion and activation in naive/wildtype mice after 5 days of treatment (Iba1 histology)", "assay_type": "in vivo", "method": "After fixation brains were processed for paraffin embedding by dehydration through increasing ethanol series. Automated immunohistochemistry of paraffin sections was performed on 3 μm paraffin sections mounted on SuperFrost+slides (Thermo Fisher Scientific) and automatically immunostained using the Discovery XT technology (Ventana, Roche Diagnostics). Sections were deparaffinized, rehydrated, subjected to antigen retrieval by heating with CC1 cell conditioning buffer for 28-68 min according to the antibody, incubated for 1-3 hours according to the antibody at room temperature with primary antibody diluted in antibody diluent (Ventana), incubated with the respective biotinylated secondary antibody diluted in antibody diluent, reacted with DABMab kit and counterstained with Hematoxylin II and Bluing reagent (Ventana). Slides were washed with soap in hot tap water and rinsed under cold running tap water to remove the soap, then dehydrated and embedded with Pertex.\nSecondary detection antibodies are: Goat anti-rabbit IgG biotinylated (Jackson ImmunoResearch 111-065-144) 1:1000; Goat anti-rabbit IgG biotinylated (Vector BA-1000) 1:200 or 1:1000\nFor the quantitative evaluation of microglia/astrocyte numbers based on image analysis from histological stained brain sections, a proprietary image analysis platform (ASTORIA, Automated Stored Image Analysis) was developed based on MS Visual Studio 2010 and many functions from Matrox MIL V9 libraries (Matrox Inc, Quebec, Canada).\nFor the detection and analysis of soma the following sequence of steps was performed: 1. Slides with brain sections for assessment of (brown) IHC stained microglia (Iba1) or astrocyte (GFAP) were scanned with Aperio's Scanscope at 20× magnification. 2. Ran the in-house developed ImageScope (V12.1.0.5029, Aperio Inc., USA) plug-in for creation and export of 3×8-bit RGB tif image tiles (at 20× magnification) for each section. 3. Image processing (for each tif image): A: Performed color deconvolution on each tif image to obtain brown stained image without blue. B: Segmentation of valid sample (brain tissue) from white background through thresholding, morphological closing, filling of holes, opening and elimination of too small objects, resulting in a binary mask of the valid tissue and sample area for the current image. C: Applied an adaptive thresholding technique for the individual segmentation of soma, based on the average gray value of the blue channel of the color-deconvoluted brown image at sufficiently dark regions (indicative for soma). The computed threshold was used for binarization, and after size filtering yielding the soma mask image (within the valid sample region).\nFIG. 10: BLZ945 treatment leads to microglia depletion and microglia activation in a dose-dependent manner. […]"}, "[2]": {"details": "normalized to vehicle control (normal food)"}, "[3]": {"details": "20 mg/kg p.o. qd, naive/wildtype mice"}}, "note": "“Also recorded” adds a separate entry of the source.", "data": [{"smiles": "CNC(=O)c1cc(Oc2ccc3nc(N[C@@H]4CCCC[C@H]4O)sc3c2)ccn1", "note": "[BLZ945, 4-(2-((1R,2R)-2-hydroxycyclohexylamino)benzothiazol-6-yloxy)-N-methylpicolinamide]", "values": [{"measurement": "Magnetization transfer ratio (MTR) in corpus callosum", "setting": "[1]", "value": "No beneficial effect"}, {"measurement": "MRI contrast in corpus callosum", "setting": "[1]; [2]", "value": "not corpus callosum; also recorded: No beneficial effect"}, {"measurement": "MRI contrast in cortex", "setting": "[1]; [2]", "value": "reduces MRI contrast; also recorded: significant beneficial effect; also recorded: almost normalized to levels of control mice"}, {"measurement": "MRI contrast in striatum", "setting": "[1]; [2]", "value": "reduces MRI contrast; also recorded: significant beneficial effect; also recorded: almost normalized to levels of control mice"}, {"measurement": "Microglia activation (Iba1-positive microglia size normalized to distal microglia processes), cortex", "setting": "microglia; [3]", "value": "only mildly; also recorded: slight increase in the activation status"}, {"measurement": "Microglia depletion (Iba1-positive microglia numbers), cortex", "setting": "microglia; [3]", "value": "no microglia depletion; also recorded: no microglia reduction"}, {"measurement": "Microglia activation (Iba1-positive microglia size normalized to distal microglia processes), cortex", "setting": "microglia; 60 mg/kg p.o. qd, naive/wildtype mice", "value": "strong microglia activation; also recorded: substantially enhanced the morphological activation status; also recorded: altered microglia morphology"}, {"measurement": "Microglia depletion", "setting": "microglia; 169 mg/kg p.o. qd, naive animals, all brain areas", "value": "almost completely depletes microglia; also recorded: near complete microglia depletion"}]}]}
